# How the values were obtained:
# Assay type in all cases: cell-based
# TCCSUP = test: 10-day proliferation (CTG), equimolar Compound A + Compound B (Example 1); conditions: Homo sapiens, TCC-SUP, 240 h, 10 days, single agent or 1:1 combo; for IC100: read-out: gIC100, heading: gIC100; for IC30: read-out: gIC30; for IC40: read-out: gIC40; for IC50: read-out: gIC50; for IC60: read-out: gIC60; for IC70: read-out: gIC70; for IC80: read-out: gIC80; for IC90: read-out: gIC90
# Method: (§1) A 10-day proliferation assay was performed in a panel of 5 MTAP-deficient and 2 wild type non-small cell lung and bladder cancer cell lines. Optimal cell seeding for all cell lines was determined by assessing the growth over a range of seeding densities in a 384-well format to identify conditions that permitted proliferation for 10 days. Cells were then plated at the optimal seeding density and treated with 20-point, two-fold dilution series of Compound A, sovilnesib (“Compound B”), or an equimolar combination of Compound A and Compound B. Concentrations tested for Compound A and Compound B alone or in combination ranged from 0.038 nM to 20,000 nM. A plate of cells was harvested at the time of compound addition to quantify the number of cells at the start of the combination (T0). For cell quantification, the harvested cells were lysed with Promega CellTiter-Glo (CTG) reagent according to the manufacturer's protocol and the chemiluminescent signal was detected on a Synergy Neo plate reader. CTG estimates cell number through detection of cellular ATP levels. Cells were incubated with the drug combinations at 37° C. with 5% CO2 for 10 days. Cells were then lysed with CTG and the chemiluminescent signal was measured.
# (§2) CTG values obtained after the 10-day treatment were background subtracted and expressed as a percent of the T0 value. Data were plotted against compound concentration and fit with a four-parameter equation to generate dose response curves for each single agent and the equimolar combination. Growth ICx (gICx) values ranging from gIC30 to gIC100 were interpolated from the fitted curves. Synergistic growth inhibition was assessed by determination of Combination Index (CI) values at these various points across the titration using the mutually non-exclusive equation [Chou, 1983; Chou, 1981] shown below where A equals the gIC value of Compound A, B equals the gICx value of Compound B, and A+B or B+A equals the gICx value of the equimolar combination. A Combination Index value less than 1.0 was considered synergistic.
# (§3) Synergy was measured for equimolar combinations of Compound A and Compound B utilizing the mutually non-exclusive Combination Index equation across gICx values ranging from gIC30-gIC100. Combination Index values are shown for: NCI-H520 (4A) and TCCSUP (41B).
# NCI-H520 = test: as above; conditions: Homo sapiens, NCI-H520, 240 h, 10 days, single agent or 1:1 combo; for IC30: read-out: gIC30; for IC40: read-out: gIC40; for IC50: read-out: gIC50; for IC60: read-out: gIC60; for IC70: read-out: gIC70; for IC80: read-out: gIC80; for IC90: read-out: gIC90; for IC100: read-out: gIC100
# Method: as §1, §2, §3
# NCI-H838 = test: 10-day proliferation (CTG), Compound B titration + 1000 nM Compound A, Bliss (Example 2); parameters: key: GDI, -100 to 100; 0 = cell number at T0
# Method: (§4) A 10-day proliferation assay was performed in a panel of 5 MTAP-deficient and 2 wild type non-small cell lung and bladder cancer cell lines. Optimal cell seeding for all cell lines was determined by assessing the growth over a range of seeding densities in a 384-well format to identify conditions that permitted proliferation for 10 days. Cells were then plated at the optimal seeding density and treated with 20-point, two-fold dilution series of Compound B in combination with a 1000 nM fixed concentration of Compound A. Single agent titrations for Compound A and Compound B were included for comparison. Concentrations tested for Compound A and Compound B alone or in combination ranged from 0.038 nM to 20,000 nM. A plate of cells was harvested at the time of compound addition to quantify the number of cells at the start of the combination (T0). For cell quantification, the harvested cells were lysed with Promega CellTiter-Glo (CTG) reagent according to the manufacturer's protocol and the chemiluminescent signal was detected as described in Example 1 above. Cells were incubated with the drug combinations at 37° C. with 5% CO2 for 10 days. Cells were then lysed with CTG and the chemiluminescent signal was measured.
# (§5) CTG values obtained after the 10-day treatment were background subtracted and expressed as a percent of the T0 value set at 100%. Data were plotted against compound concentration and fit with a four-parameter equation to generate single agent dose response curves. Percent inhibition was determined for each combination and single agent concentration compared to a DMSO control. In addition, the overall net growth or death of the cells was calculated and reported as a growth death index (GDI) value on a scale of −100 to 100 with the midpoint (0) being the number of cells at the beginning of the combination (T0).
# (§6) Predicted inhibition was calculated using (Ea+Eb)−(Ea*Eb) where E equals the effect (inhibition) of each single agent (a and b). A difference between the observed inhibition percentage and the predicted inhibition percentage greater than 10% was considered synergistic. A Bliss score was only calculated for combinations eliciting >20% growth inhibition (GDI value <80). Since Bliss is calculated based on growth inhibition, scores within cytotoxic dose ranges may not accurately reflect synergistic cytotoxicity.
# (§7) Synergy was measured across the Compound B titration with 1000 nM Compound A by Bliss Independence analysis. Bliss scores >10 are indicated by “*” and are considered synergistic. […] Synergy as reported using Bliss may be underrepresented within cytotoxic dose ranges. Growth death index values are shown for the combination titration and each single agent Compound A (Cmpd A) and Compound B (Cmpd B) on a scale of −100 to 100 with the midpoint (0) being the number of cells at the beginning of the combination (T0).
# SW900 = test: as above; parameters: key: GDI, -100 to 100; 0 = cell number at T0
# Method: as §4, §5, §6, §7
# UMUC5 = test: as above; parameters: key to GDI: GDI, -100 to 100; 0 = cell number at T0
# Method: as §4, §5, §6, §7
# [1] = Cmpd B 0.04 nM, combo: + 1000 nM Cmpd A
# [2] = Cmpd B 0.1 nM, combo: + 1000 nM Cmpd A
# [3] = Cmpd B 0.2 nM, combo: + 1000 nM Cmpd A
# [4] = Cmpd B 0.3 nM, combo: + 1000 nM Cmpd A
# [5] = Cmpd B 0.6 nM, combo: + 1000 nM Cmpd A
# [6] = Cmpd B 1.2 nM, combo: + 1000 nM Cmpd A
# [7] = Cmpd B 2.4 nM, combo: + 1000 nM Cmpd A
# [8] = Cmpd B 4.9 nM, combo: + 1000 nM Cmpd A
# [9] = Cmpd B 9.8 nM, combo: + 1000 nM Cmpd A
# [10] = Cmpd B 19.5 nM, combo: + 1000 nM Cmpd A
# [11] = Cmpd B 39.1 nM, combo: + 1000 nM Cmpd A
# [12] = Cmpd B 78.1 nM, combo: + 1000 nM Cmpd A
# [13] = Cmpd B 156.3 nM, combo: + 1000 nM Cmpd A
# [14] = Cmpd B 312.5 nM, combo: + 1000 nM Cmpd A
# [15] = Cmpd B 625 nM, combo: + 1000 nM Cmpd A
# [16] = Cmpd B 1250 nM, combo: + 1000 nM Cmpd A
# [17] = Cmpd B 2500 nM, combo: + 1000 nM Cmpd A
# [18] = Cmpd B 5000 nM, combo: + 1000 nM Cmpd A
# [19] = Cmpd B 10000 nM, combo: + 1000 nM Cmpd A
# [20] = Cmpd B 20000 nM, combo: + 1000 nM Cmpd A
smiles,measurement,setting,value
"Cc1cc(NC(=O)c2ccc(NS(=O)(=O)CCO)cc2N2CCC3(CC2)CC3)nc(N2CCC(F)(F)CC2)n1 [Compound B, N-(2-(4,4-difluoropiperidin-1-yl)-6-methylpyrimidin-4-yl)-4-((2-hydroxyethyl)sulfonamido)-2-(6-azaspiro[2.5]octan-6-yl)benzamide]",IC100,TCCSUP,> 20 µM
same,IC30,TCCSUP,0.091 µM
same,IC40,TCCSUP,0.107 µM
same,IC50,TCCSUP,0.126 µM
same,IC60,TCCSUP,0.15 µM
same,IC70,TCCSUP,0.183 µM
same,IC80,TCCSUP,0.24 µM
same,IC90,TCCSUP,0.405 µM
same,IC30,NCI-H520,2.81 µM
same,IC40,NCI-H520,4.16 µM
same,IC50,NCI-H520,5.8 µM
same,IC60,NCI-H520,7.73 µM
same,IC70,NCI-H520,9.98 µM
same,IC80,NCI-H520,12.5 µM
same,IC90,NCI-H520,15.5 µM
same,IC100,NCI-H520,18.7 µM
same,GDI,NCI-H838; [1],100
same,GDI,NCI-H838; [2],100
same,GDI,NCI-H838; [3],100
same,GDI,NCI-H838; [4],100
same,GDI,NCI-H838; [5],100
same,GDI,NCI-H838; [6],100
same,GDI,NCI-H838; [7],100
same,GDI,NCI-H838; [8],100
same,GDI,NCI-H838; [9],100
same,GDI,NCI-H838; [10],100
same,GDI,NCI-H838; [11],100
same,GDI,NCI-H838; [12],100
same,GDI,NCI-H838; [13],74
same,GDI,NCI-H838; [14],65
same,GDI,NCI-H838; [15],55
same,GDI,NCI-H838; [16],48
same,GDI,NCI-H838; [17],58
same,GDI,NCI-H838; [18],87
same,GDI,NCI-H838; [19],61
same,GDI,NCI-H838; [20],−1
same,GDI,SW900; [1],100
same,GDI,SW900; [2],100
same,GDI,SW900; [3],100
same,GDI,SW900; [4],100
same,GDI,SW900; [5],100
same,GDI,SW900; [6],100
same,GDI,SW900; [7],99
same,GDI,SW900; [8],100
same,GDI,SW900; [9],100
same,GDI,SW900; [10],100
same,GDI,SW900; [11],99
same,GDI,SW900; [12],100
same,GDI,SW900; [13],100
same,GDI,SW900; [14],100
same,GDI,SW900; [15],86
same,GDI,SW900; [16],89
same,GDI,SW900; [17],83
same,GDI,SW900; [18],75
same,GDI,SW900; [19],64
same,GDI,SW900; [20],28
same,GDI,UMUC5; [1],97
same,GDI,UMUC5; [2],100
same,GDI,UMUC5; [3],100
same,GDI,UMUC5; [4],100
same,GDI,UMUC5; [5],100
same,GDI,UMUC5; [6],96
same,GDI,UMUC5; [7],100
same,GDI,UMUC5; [8],99
same,GDI,UMUC5; [9],100
same,GDI,UMUC5; [10],100
same,GDI,UMUC5; [11],100
same,GDI,UMUC5; [12],100
same,GDI,UMUC5; [13],75
same,GDI,UMUC5; [14],26
same,GDI,UMUC5; [15],17
same,GDI,UMUC5; [16],16
same,GDI,UMUC5; [17],15
same,GDI,UMUC5; [18],5
same,GDI,UMUC5; [19],−87
same,GDI,UMUC5; [20],−91
same,single agent dose sufficient to maximally inhibit cell growth,UMUC5; single agent,5 µM
Nc1nc(=O)n(-c2ccccc2Cl)c2nc(C(F)(F)F)ccc12 [Compound A],IC100,TCCSUP,> 20 µM
same,IC30,TCCSUP,20 µM
same,IC40,TCCSUP,20 µM
same,IC50,TCCSUP,20 µM
same,IC60,TCCSUP,20 µM
same,IC70,TCCSUP,20 µM
same,IC80,TCCSUP,20 µM
same,IC90,TCCSUP,20 µM
same,IC30,NCI-H520,20 µM
same,IC40,NCI-H520,20 µM
same,IC50,NCI-H520,20 µM
same,IC60,NCI-H520,20 µM
same,IC70,NCI-H520,20 µM
same,IC80,NCI-H520,20 µM
same,IC90,NCI-H520,20 µM
same,IC100,NCI-H520,20 µM
same,GDI,"NCI-H838; single agent, 1000 nM Cmpd A",52
same,GDI,"SW900; single agent, 1000 nM Cmpd A",99
same,GDI,"UMUC5; single agent, 1000 nM Cmpd A",59

# From patent US20260294915A1, “COMBINATION THERAPY COMPRISING A MAT2A INHIBITOR AND A TOPOISOMERASE INHIBITOR, A SPLICING INHIBITOR SULFONAMIDE, OR A KIF18 INHIBITOR” (IDEAYA BIOSCIENCES, INC., priority 2023, published 2026)
